Assay results: patent US12077503B2, “Substituted cyclic amides and their use as herbicides” (FMC CORPORATION, priority 2015, dated 2024)

How the values were obtained:
Assay type in all cases: in vivo
[1] = test system: barnyardgrass (Echinochloa crus-galli); test: Test G Pre-Emergence Protocol; details: Echinochloa crus-galli, pre-emergence, 312 h, evaluated after 13 days; for pest or weed control at 15.625 g/ha: 15.625 g ai/ha, read-out: Barnyard grass damage rating (100=total damage to plant; 0=no damage to plant); for pest or weed control at 62.5 g/ha: 62.5 g ai/ha, 100=total damage to plant, 0=no damage to plant, read-out: plant damage rating, Barnyardgrass; for pest or weed control at 250 g/ha: 250 g ai/ha, read-out: Barnyardgrass damage rating (100=total damage to plant; 0=no damage to plant)
In short: (§1)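 Scores are visual damage ratings from 0 (no damage) to 100 (total plant kill), taken 13 days after treatment. Compound was sprayed one day post-sowing at 15.625, 62.5 or 250 g/ha in 50:50 acetone/water with 0.5% Tween 20.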

corn (Zea mays) [2] = test: Test G Pre-Emergence Protocol; details: Zea mays, pre-emergence, 312 h, evaluated after 13 days; for plant injury at 15.625 g/ha: 15.625 g ai/ha; for plant injury at 15.625 g/ha / plant injury at 250 g/ha: read-out: Corn damage rating (100=total damage to plant; 0=no damage to plant); for plant injury at 62.5 g/ha: 62.5 g ai/ha, 100=total damage to plant, 0=no damage to plant, read-out: plant damage rating, Corn; for plant injury at 250 g/ha: 250 g ai/ha
In short: as §1

[3] = test system: giant foxtail (Setaria faberi); test: Test G Pre-Emergence Protocol; details: Setaria faberi, pre-emergence, 312 h, evaluated after 13 days; for pest or weed control at 15.625 g/ha: 15.625 g ai/ha; for pest or weed control at 15.625 g/ha / pest or weed control at 250 g/ha: read-out: Foxtail, Giant damage rating (100=total damage to plant; 0=no damage to plant); for pest or weed control at 62.5 g/ha: 62.5 g ai/ha, 100=total damage to plant, 0=no damage to plant, read-out: plant damage rating, Foxtail, Giant; for pest or weed control at 250 g/ha: 250 g ai/ha
In short: as §1

[4] = test system: ivy-leaved morning glory (Ipomoea hederacea); test: Test G Pre-Emergence Protocol; details: Ipomoea, pre-emergence, 312 h, evaluated after 13 days; for pest or weed control at 15.625 g/ha: 15.625 g ai/ha, read-out: Morning-glory, Ivy-leaved damage rating (100=total damage to plant; 0=no damage to plant); for pest or weed control at 62.5 g/ha: 62.5 g ai/ha, 100=total damage to plant, 0=no damage to plant, read-out: plant damage rating, Morningglory, Ivy-leaved; for pest or weed control at 250 g/ha: 250 g ai/ha, read-out: Morningglory, Ivy-leaved damage rating (100=total damage to plant; 0=no damage to plant)
In short: as §1

[5] = test system: redroot pigweed (Amaranthus retroflexus); test: Test G Pre-Emergence Protocol; details: Amaranthus retroflexus, pre-emergence, 312 h, evaluated after 13 days; for pest or weed control at 15.625 g/ha: 15.625 g ai/ha; for pest or weed control at 15.625 g/ha / pest or weed control at 250 g/ha: read-out: Pigweed, Redroot damage rating (100=total damage to plant; 0=no damage to plant); for pest or weed control at 62.5 g/ha: 62.5 g ai/ha, 100=total damage to plant, 0=no damage to plant, read-out: plant damage rating, Pigweed, Redroot; for pest or weed control at 250 g/ha: 250 g ai/ha
In short: as §1

[6] = test system: velvetleaf (Abutilon theophrasti); test: Test G Pre-Emergence Protocol; details: Abutilon theophrasti, pre-emergence, 312 h, evaluated after 13 days; for pest or weed control at 15.625 g/ha: 15.625 g ai/ha; for pest or weed control at 15.625 g/ha / pest or weed control at 250 g/ha: read-out: Velvetleaf damage rating (100=total damage to plant; 0=no damage to plant); for pest or weed control at 62.5 g/ha: 62.5 g ai/ha, 100=total damage to plant, 0=no damage to plant, read-out: plant damage rating, Velvetleaf; for pest or weed control at 250 g/ha: 250 g ai/ha
In short: as §1

[7] = test system: barnyardgrass (Echinochloa crus-galli); test: Test G Post-Emergence Protocol; details: Echinochloa crus-galli, post-emergence, 312 h; for pest or weed control at 15.625 g/ha: 15.625 g ai/ha, evaluated after 13 days (100=total damage to plant; 0=no damage to plant), read-out: Barnyardgrass damage rating; for pest or weed control at 62.5 g/ha: 62.5 g ai/ha, read-out: Barnyardgrass damage rating (100=total damage to plant; 0=no damage to plant); for pest or weed control at 62.5 g/ha / pest or weed control at 250 g/ha: evaluated after 13 days; for pest or weed control at 250 g/ha: 250 g ai/ha, read-out: damage to plant, Barnyardgrass (100=total damage to plant; 0=no damage to plant)
In short: (§2)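 Eight days post-sowing, plants received a spray of test compound (acetone/water 50:50, 0.5% Tween 20) at 15.625, 62.5 or 250 g/ha. Glasshouse regime thereafter: 24/16 °C, 14 h light, 65% humidity. Assessment after 13 days on a 0–100 damage scale.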

corn (Zea mays) [8] = test: Test G Post-Emergence Protocol; details: Zea mays, post-emergence, 312 h; for plant injury at 15.625 g/ha: 15.625 g ai/ha, evaluated after 13 days (100=total damage to plant; 0=no damage to plant), read-out: Corn damage rating; for plant injury at 62.5 g/ha: 62.5 g ai/ha, read-out: Corn damage rating (100=total damage to plant; 0=no damage to plant); for plant injury at 62.5 g/ha / plant injury at 250 g/ha: evaluated after 13 days; for plant injury at 250 g/ha: 250 g ai/ha, read-out: damage to plant, Corn (100=total damage to plant; 0=no damage to plant)
In short: as §2

[9] = test system: giant foxtail (Setaria faberi); test: Test G Post-Emergence Protocol; details: Setaria faberi, post-emergence, 312 h; for pest or weed control at 15.625 g/ha: 15.625 g ai/ha, evaluated after 13 days (100=total damage to plant; 0=no damage to plant), read-out: Foxtail, Giant damage rating; for pest or weed control at 62.5 g/ha: 62.5 g ai/ha, read-out: Foxtail, Giant damage rating (100=total damage to plant; 0=no damage to plant); for pest or weed control at 62.5 g/ha / pest or weed control at 250 g/ha: evaluated after 13 days; for pest or weed control at 250 g/ha: 250 g ai/ha, read-out: damage to plant, Foxtail, Giant (100=total damage to plant; 0=no damage to plant)
In short: as §2

[10] = test system: ivy-leaved morning glory (Ipomoea hederacea); test: Test G Post-Emergence Protocol; details: Ipomoea, post-emergence, 312 h; for pest or weed control at 15.625 g/ha: 15.625 g ai/ha, evaluated after 13 days (100=total damage to plant; 0=no damage to plant), read-out: Morningglory, Ivy-leaved damage rating; for pest or weed control at 62.5 g/ha: 62.5 g ai/ha, read-out: Morningglory, Ivy-leaved damage rating (100=total damage to plant; 0=no damage to plant); for pest or weed control at 62.5 g/ha / pest or weed control at 250 g/ha: evaluated after 13 days; for pest or weed control at 250 g/ha: 250 g ai/ha, read-out: damage to plant, Morningglory, Ivy-leaved (100=total damage to plant; 0=no damage to plant)
In short: as §2

[11] = test system: redroot pigweed (Amaranthus retroflexus); test: Test G Post-Emergence Protocol; details: Amaranthus retroflexus, post-emergence, 312 h; for pest or weed control at 15.625 g/ha: 15.625 g ai/ha, evaluated after 13 days (100=total damage to plant; 0=no damage to plant), read-out: Pigweed, Redroot damage rating; for pest or weed control at 62.5 g/ha: 62.5 g ai/ha, read-out: Pigweed, Redroot damage rating (100=total damage to plant; 0=no damage to plant); for pest or weed control at 62.5 g/ha / pest or weed control at 250 g/ha: evaluated after 13 days; for pest or weed control at 250 g/ha: 250 g ai/ha, read-out: damage to plant, Pigweed, Redroot (100=total damage to plant; 0=no damage to plant)
In short: as §2

[12] = test system: velvetleaf (Abutilon theophrasti); test: Test G Post-Emergence Protocol; details: Abutilon theophrasti, post-emergence, 312 h; for pest or weed control at 15.625 g/ha: 15.625 g ai/ha, evaluated after 13 days (100=total damage to plant; 0=no damage to plant), read-out: Velvetleaf damage rating; for pest or weed control at 62.5 g/ha: 62.5 g ai/ha, read-out: Velvetleaf damage rating (100=total damage to plant; 0=no damage to plant); for pest or weed control at 62.5 g/ha / pest or weed control at 250 g/ha: evaluated after 13 days; for pest or weed control at 250 g/ha: 250 g ai/ha, read-out: damage to plant, Velvetleaf (100=total damage to plant; 0=no damage to plant)
In short: as §2

SMILES	pest or weed control at 15.625 g/ha [1]	pest or weed control at 62.5 g/ha [1]	pest or weed control at 250 g/ha [1]	plant injury at 15.625 g/ha (corn (Zea mays) [2])	plant injury at 62.5 g/ha (corn (Zea mays) [2])	plant injury at 250 g/ha (corn (Zea mays) [2])	pest or weed control at 15.625 g/ha [3]	pest or weed control at 62.5 g/ha [3]	pest or weed control at 250 g/ha [3]	pest or weed control at 15.625 g/ha [4]	pest or weed control at 62.5 g/ha [4]	pest or weed control at 250 g/ha [4]	pest or weed control at 15.625 g/ha [5]	pest or weed control at 62.5 g/ha [5]	pest or weed control at 250 g/ha [5]	pest or weed control at 15.625 g/ha [6]	pest or weed control at 62.5 g/ha [6]	pest or weed control at 250 g/ha [6]	pest or weed control at 15.625 g/ha [7]	pest or weed control at 62.5 g/ha [7]	other results
Cc1nccc(NC(=O)[C@@H]2C(=O)N(C)C[C@H]2c2ccc(C(F)(F)F)cc2)c1C (racemic) [Compound 1630]	0%	0%	0%	0%	0%	0%	0%	0%	0%	0%	0%	0%	0%	0%	0%	0%	0%	0%	0%	0%	pest or weed control at 250 g/ha [7]: 0%; plant injury at 15.625 g/ha (corn (Zea mays) [8]): 0%; plant injury at 62.5 g/ha (corn (Zea mays) [8]): 0%; plant injury at 250 g/ha (corn (Zea mays) [8]): 0%; pest or weed control at 15.625 g/ha [9]: 0%; pest or weed control at 62.5 g/ha [9]: 0%; pest or weed control at 250 g/ha [9]: 0%; pest or weed control at 15.625 g/ha [10]: 0%; pest or weed control at 62.5 g/ha [10]: 0%; pest or weed control at 250 g/ha [10]: 0%; pest or weed control at 15.625 g/ha [11]: 0%; pest or weed control at 62.5 g/ha [11]: 0%; pest or weed control at 250 g/ha [11]: 0%; pest or weed control at 15.625 g/ha [12]: 0%; pest or weed control at 62.5 g/ha [12]: 0%; pest or weed control at 250 g/ha [12]: 0%
CN1C[C@H](c2cccc3c2OC(F)(F)O3)[C@@H](C(=O)Nc2ccccc2F)C1=O (racemic) [Compound 1465]	0%	20%	70%	0%	0%	0%	30%	70%	90%	0%	0%	0%	0%	0%	0%	0%	0%	0%	0%	10%	pest or weed control at 250 g/ha [7]: 20%; plant injury at 15.625 g/ha (corn (Zea mays) [8]): 10%; plant injury at 62.5 g/ha (corn (Zea mays) [8]): 10%; plant injury at 250 g/ha (corn (Zea mays) [8]): 10%; pest or weed control at 15.625 g/ha [9]: 0%; pest or weed control at 62.5 g/ha [9]: 60%; pest or weed control at 250 g/ha [9]: 70%; pest or weed control at 15.625 g/ha [10]: 0%; pest or weed control at 62.5 g/ha [10]: 0%; pest or weed control at 250 g/ha [10]: 20%; pest or weed control at 15.625 g/ha [11]: 10%; pest or weed control at 62.5 g/ha [11]: 0%; pest or weed control at 250 g/ha [11]: 0%; pest or weed control at 15.625 g/ha [12]: 10%; pest or weed control at 62.5 g/ha [12]: 0%; pest or weed control at 250 g/ha [12]: 10%
CN1C[C@H](c2ccc(F)c(C#N)c2)[C@@H](C(=O)Nc2ccccc2F)C1=O (racemic) [Compound 1468]	10%	70%	80%	0%	0%	0%	80%	80%	90%	0%	0%	0%	0%	0%	0%	0%	0%	0%	10%	50%	pest or weed control at 250 g/ha [7]: 40%; plant injury at 15.625 g/ha (corn (Zea mays) [8]): 10%; plant injury at 62.5 g/ha (corn (Zea mays) [8]): 10%; plant injury at 250 g/ha (corn (Zea mays) [8]): 10%; pest or weed control at 15.625 g/ha [9]: 30%; pest or weed control at 62.5 g/ha [9]: 70%; pest or weed control at 250 g/ha [9]: 70%; pest or weed control at 15.625 g/ha [10]: 10%; pest or weed control at 62.5 g/ha [10]: 0%; pest or weed control at 250 g/ha [10]: 10%; pest or weed control at 15.625 g/ha [11]: 10%; pest or weed control at 62.5 g/ha [11]: 0%; pest or weed control at 250 g/ha [11]: 30%; pest or weed control at 15.625 g/ha [12]: 0%; pest or weed control at 62.5 g/ha [12]: 0%; pest or weed control at 250 g/ha [12]: 10%
